The target of one assay is purified Human plasma kallikrein (Homo sapiens (Human), UniProt P03952). The experiment in a line: Kallikrein Assay. The note with it: purified Human plasma kallikrein 0.5 nM, substrate Acetyl-K-P-R-AFC, pH 7.4; read-out: P. KLK IC50. The format is biochemical. As to the method:
(§1) The effectiveness of a compound of the present invention as an inhibitor of Kallikrein can be determined using a relevant purified serine protease, and an appropriate synthetic substrate. The rate of hydrolysis of the chromogenic or fluorogenic substrate by the relevant serine protease was measured both in the absence and presence of compounds of the present invention. Assays were conducted at room temperature or at 37° C. […] A decrease in the rate of fluorescence change in the presence of inhibitor is indicative of enzyme inhibition. Such methods are known to one skilled in the art. The results of this assay are expressed as the inhibitory constant, Ki.
Kallikrein determinations were made in 50 mM HEPES buffer at pH 7.4 containing 150 mM NaCl, 5 mM CaCl2, and 0.1% PEG 8000 (polyethylene glycol; Fisher Scientific). Determinations were made using purified Human plasma kallikrein at a final concentration of 0.5 nM (Enzyme Research Laboratories) and the synthetic substrate, Acetyl-K-P-R-AFC (Sigma # C6608) at a concentration of […].
Activity assays were performed by diluting a stock solution of substrate at least tenfold to a final concentration ≦0.2 Km into a solution containing enzyme or enzyme equilibrated with inhibitor. Times required to achieve equilibration between enzyme and inhibitor were determined in control experiments. The reactions were performed under linear progress curve conditions and fluorescence increase measured at 405 Ex/510 Em nm. Values were converted to percent inhibition of the control reaction (after subtracting 100% Inhibition value). IC50 was determined by inflection point from a four parameter logistic curve fit. Ki was calculated using the Cheng Prusoff equation, Ki=IC50/(1+([S]/Km)).
Sequence of purified human Factor XIa (P03951 388-625): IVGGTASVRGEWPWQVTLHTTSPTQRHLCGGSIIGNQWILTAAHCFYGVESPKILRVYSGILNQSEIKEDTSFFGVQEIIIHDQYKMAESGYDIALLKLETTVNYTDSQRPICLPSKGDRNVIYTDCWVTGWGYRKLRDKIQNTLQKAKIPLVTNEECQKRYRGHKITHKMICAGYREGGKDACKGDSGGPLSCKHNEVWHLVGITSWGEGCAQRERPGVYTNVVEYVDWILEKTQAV
Sequence of purified human Factor XIa (P03951 19-387 partner): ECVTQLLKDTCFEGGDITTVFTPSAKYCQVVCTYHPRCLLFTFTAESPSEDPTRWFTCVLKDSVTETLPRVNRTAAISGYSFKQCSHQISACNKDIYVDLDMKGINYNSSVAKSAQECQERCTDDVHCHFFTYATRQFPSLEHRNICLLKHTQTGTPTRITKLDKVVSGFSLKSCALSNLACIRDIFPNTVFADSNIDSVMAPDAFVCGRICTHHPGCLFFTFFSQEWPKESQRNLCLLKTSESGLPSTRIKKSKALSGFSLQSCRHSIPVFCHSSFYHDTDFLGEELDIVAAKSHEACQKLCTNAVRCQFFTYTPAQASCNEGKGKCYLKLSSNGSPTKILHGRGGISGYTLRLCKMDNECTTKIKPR
Sequence of purified Human plasma kallikrein (P03952 391-638): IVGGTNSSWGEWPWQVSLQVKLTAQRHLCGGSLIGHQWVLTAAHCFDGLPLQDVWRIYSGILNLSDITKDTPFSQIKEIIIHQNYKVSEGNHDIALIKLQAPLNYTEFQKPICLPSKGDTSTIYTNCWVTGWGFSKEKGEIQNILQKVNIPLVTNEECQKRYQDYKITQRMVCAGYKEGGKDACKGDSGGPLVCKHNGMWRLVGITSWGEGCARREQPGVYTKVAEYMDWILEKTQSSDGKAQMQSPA
Sequence of purified Human plasma kallikrein (P03952 20-390 partner): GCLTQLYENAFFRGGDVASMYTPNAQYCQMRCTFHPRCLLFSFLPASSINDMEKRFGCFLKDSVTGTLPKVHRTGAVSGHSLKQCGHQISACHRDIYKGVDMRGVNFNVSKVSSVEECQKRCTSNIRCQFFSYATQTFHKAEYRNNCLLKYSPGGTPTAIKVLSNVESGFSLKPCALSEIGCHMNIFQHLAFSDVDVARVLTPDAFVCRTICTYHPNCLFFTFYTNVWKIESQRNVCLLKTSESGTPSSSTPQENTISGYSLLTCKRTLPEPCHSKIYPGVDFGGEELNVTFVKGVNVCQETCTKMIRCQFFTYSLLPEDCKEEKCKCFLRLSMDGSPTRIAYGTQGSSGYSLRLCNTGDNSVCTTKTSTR
The IC50 is the concentration at which inhibition is half-maximal. For the compound `O=C(O)c1ccc(NC(=O)C(CC2CC2)c2ccc(-c3cc(Cl)ccc3-n3cc(C(F)F)nn3)c[n+]2[O-])cc1` (racemic) [Example 41, 4-{[2-(5-{5-chloro-2-[4-(difluoromethyl)-1H-1,2,3-triazol-1-yl]phenyl}-1-oxidopyridin-2-yl)-3-cyclopropylpropanoyl]amino}benzoic acid], the IC50 worked out at 363 nM.

In the next assay the target is purified human Factor XIa (Homo sapiens (Human), UniProt P03951). Description: Factor XIa Assay. The format is biochemical. To be noted: purified human Factor XIa 40 pM, substrate Z-Gly-Pro-Arg-AFC, pH 7.4; read-out: FXIa IC50. As to the method:
as §1, with “Coagulation Factor XIa” for “Kallikrein”, “The results of this assay are expressed as the inhibitory constant, Ki.” left out
Factor XIa determinations were made in 50 mM HEPES buffer at pH 7.4 containing 150 mM NaCl, 5 mM CaCl2, and 0.1% PEG 8000 (polyethylene glycol; JT Baker or Fisher Scientific). Determinations were made using purified human Factor XIa at a final concentration of 40 pM (Sekisui Diagnostics) and he synthetic substrate, Z-Gly-Pro-Arg-AFC, TFA salt (Sigma #C0980) at a concentration of 100 µM.
Activity assays were performed by diluting a stock solution of substrate at least tenfold to a final concentration ≦0.1 Km into a solution containing enzyme or enzyme equilibrated with inhibitor. Times required to achieve equilibration between enzyme and inhibitor were determined in control experiments. Initial velocities of product formation in the absence (Vo) or presence of inhibitor (Vi) were measured. Assuming competitive inhibition, and that unity is negligible compared Km/[S], [I]/e, and [I]/e (where [S], [I], and e respectively represent the total concentrations, of substrate, inhibitor and enzyme), the equilibrium constant (Ki) for dissociation of the inhibitor from the enzyme can be obtained from the dependence of Vo/Vi on [I] shown in the following equation.
As for `O=C(O)c1ccc(NC(=O)C(O)c2ccc(-c3cc(Cl)ccc3C3CC3)c[n+]2[O-])cc1` (racemic) [Example 11, 4-({[5-(5-chloro-2-cyclopropylphenyl)-1-oxidopyridin-2-yl](hydroxy)acetyl}amino)benzoic acid], the IC50 worked out at 2510 nM.

For `O=C(O)c1ccc(NC(=O)C(CC2CC2)c2ccc(-c3c(F)ccc(Cl)c3F)c[n+]2[O-])cc1` (racemic) [Example 33, 4-({2-[5-(3-chloro-2,6-difluorophenyl)-1-oxidopyridin-2-yl]-3-cyclopropylpropanoyl}amino)benzoic acid], the IC50 stood at 134 nM.

With `Cc1cc(NC(=O)C(CC2CC2)c2ccc(-c3cc(Cl)ccc3-c3cnco3)c[n+]2[O-])ccc1C(=O)O` (racemic) [Example 36, 4-[(2-{5-[5-chloro-2-(1,3-oxazol-5-yl)phenyl]-1-oxidopyridin-2-yl}-3-cyclopropylpropanoyl)amino]-2-methyl-benzoic acid], the 50% inhibitory concentration (IC50) was found to be 94.5 nM.

As to `Cc1cc(NC(=O)C(CC2CC2)c2ccc(-c3cc(Cl)ccc3CN)c[n+]2[O-])ccc1C(=O)O` (racemic) [Example 37, 4-[(2-{5-[2-(aminomethyl)-5-chlorophenyl]-1-oxidopyridin-2-yl}-3-cyclopropylpropanoyl)amino]-2-methylbenzoic acid], the IC50 was 228 nM.

With `O=C(O)c1ccc(NC(=O)C(CC2CC2)c2ccc(-c3cc(Cl)ccc3-c3nccs3)c[n+]2[O-])cc1` (racemic) [Example 43, 4-[(2-{5-[5-chloro-2-(1,3-thiazol-2-yl)phenyl]-1-oxidopyridin-2-yl}-3-cyclopropylpropanoyl)amino]benzoic acid], the IC50 came out at 53.6 nM.

`O=C(NC12CCC(C(=O)O)(CC1)CC2)C(Cc1ccccc1)c1ccc(-c2c(F)ccc(Cl)c2F)c[n+]1[O-]` (single isomer, unassigned) [Example 16, 4-({2-[5-(3-chloro-2,6-difluorophenyl)-1-oxidopyridin-2-yl]-3-phenylpropanoyl}amino) bicyclo[2.2.2]octane-1-carboxylic acid]: the IC50 was determined as 10000 nM.

With `O=C(NC12CCC(C(=O)O)(CC1)CC2)C(Cc1ccccc1)c1ccc(-c2cc(Cl)ccc2-n2cnnn2)c[n+]1[O-]` (single isomer, unassigned) [Example 18, 4-[(2-{5-[5-chloro-2-(1H-tetrazol-1-yl)phenyl]-1-oxidopyridin-2-yl}-3-phenylpropanoyl)amino] bicyclo[2.2.2]octane-1-carboxylic acid], the IC50 was 271 nM.

For `COC(=O)NC12CCC(NC(=O)C(Cc3ccccc3)c3ccc(-c4cc(Cl)ccc4-n4cnnn4)c[n+]3[O-])(CC1)CC2` (single isomer, unassigned) [Example 20, methyl {4-[(2-{5-[5-chloro-2-(1H-tetrazol-1-yl)phenyl]-1-oxidopyridin-2-yl}-3-phenylpropanoyl)amino]bicyclo[2.2.2]oct-1-yl}carbamate], the concentration for half-maximal inhibition (IC50) came out at 1000 nM.

Turning to `N#Cc1ccc(Cl)c(F)c1-c1ccc(C(CC2CC2)C(=O)Nc2ccc(C(=O)O)cc2)[n+]([O-])c1` (single isomer, unassigned) [Example 29, 4-({2-[5-(3-chloro-6-cyano-2-fluorophenyl)-1-oxidopyridin-2-yl]-3-cyclopropylpropanoyl}amino)benzoic acid], the IC50 is 458 nM.

Turning to `O=C(O)c1ccc(NC(=O)C(CC2CC2)c2ccc(-c3cc(Cl)ccc3-n3cnnn3)c[n+]2[O-])c(Cl)c1` (single isomer, unassigned) [Example 31, 3-chloro-4-[(2-{5-[5-chloro-2-(1H-tetrazol-1-yl)phenyl]-1-oxidopyridin-2-yl}-3-cyclopropylpropanoyl)amino]benzoic acid], the half-maximal inhibitory concentration (IC50) came out at 752 nM.

On to `O=C(O)c1ccc(NC(=O)C(CC2CC2)c2ccc(-c3cc(Cl)ccc3-c3cnco3)c[n+]2[O-])cc1` (single isomer, unassigned) [Example 34, 4-[(2-{5-[5-chloro-2-(1,3-oxazol-5-yl)phenyl]-1-oxidopyridin-2-yl}-3-cyclopropylpropanoyl)amino]benzoic acid], for which the IC50 turned out to be 443 nM.

On to `O=C(O)c1ccc(NC(=O)C(CC2CC2)c2ccc(-c3cc(Cl)ccc3OC(F)(F)F)c[n+]2[O-])cc1` (single isomer, unassigned) [Example 38, 4-[(2-{5-[5-chloro-2-(trifluoromethoxy)phenyl]-1-oxidopyridin-2-yl}-3-cyclopropylpropanoyl)amino]benzoic acid], for which the IC50 stood at 1000 nM.

For `Cc1cc(C(=O)O)ccc1NC(=O)C(CC1CC1)c1ccc(-c2cc(Cl)ccc2-n2cnnn2)c[n+]1[O-]` (single isomer, unassigned) [Example 46, 4-[(2-{5-[5-chloro-2-(1H-tetrazol-1-yl)phenyl]-1-oxidopyridin-2-yl}-3-cyclopropylpropanoyl)amino]-3-methylbenzoic acid], the concentration for half-maximal inhibition (IC50) was determined as 1000 nM.

Take `Cc1cc(NC(=O)C(CC2CC2)c2ccc(-c3cc(Cl)ccc3-n3cnnn3)c[n+]2[O-])ccc1C(=O)O` (single isomer, unassigned) [Example 49, 4-[(2-{5-[5-chloro-2-(1H-tetrazol-1-yl)phenyl]-1-oxidopyridin-2-yl}-3-cyclopropylpropanoyl)amino]-2-methylbenzoic acid]: the IC50 was 57 nM.

Take `O=C(O)c1ccc(NC(=O)[C@@H](Cc2ccccc2)c2ccc(-c3c(F)ccc(Cl)c3F)c[n+]2[O-])cc1` [Example 3, 4-({(2S)-2-[5-(3-chloro-2,6-difluorophenyl)-1-oxidopyridin-2-yl]-3-phenylpropanoyl}amino) benzoic acid]: the 50% inhibitory concentration (IC50) came to 825 nM.

For `O=C(Cc1ccc(-c2cc(Cl)ccc2C2CC2)c[n+]1[O-])Nc1ccc(C(=O)O)cc1` [Example 10, 4-({[5-(5-chloro-2-cyclopropylphenyl)-1-oxidopyridin-2-yl]acetyl}amino) benzoic acid], the concentration for half-maximal inhibition (IC50) was 2190 nM.

Regarding `O=C(Cc1ccc(-c2cc(Cl)ccc2OC(F)F)c[n+]1[O-])Nc1ccc(C(=O)O)cc1` [Example 12, 4-[({5-[5-chloro-2-(difluoromethoxy)phenyl]-1-oxidopyridin-2-yl}acetyl)amino] benzoic acid], the concentration for half-maximal inhibition (IC50) turned out to be 711 nM.

With `O=C(Cc1ccc(-c2cc(Cl)ccc2C(F)F)c[n+]1[O-])Nc1ccc(C(=O)O)cc1` [Example 13, 4-[({5-[5-chloro-2-(difluoromethyl)phenyl]-1-oxidopyridin-2-yl}acetyl)amino] benzoic acid], the IC50 was 388 nM.

With `O=C(O)c1ccc(NC(=O)[C@H](Cc2ccccc2)c2ccc(-c3cc(Cl)ccc3-c3cnco3)c[n+]2[O-])cc1` [Example 21, 4-{[(2R)-2-{5-[5-chloro-2-(1,3-oxazol-5-yl)phenyl]-1-oxidopyridin-2-yl}-3-phenylpropanoyl]amino} benzoic acid], the half-maximal inhibitory concentration (IC50) stood at 0.52 nM.

With `O=C(O)c1ccc(NC(=O)[C@@H](Cc2ccccc2)c2ccc(-c3cc(Cl)ccc3-c3cnco3)c[n+]2[O-])cc1` [Example 22, 4-{[(2S)-2-{5-[5-chloro-2-(1,3-oxazol-5-yl)phenyl]-1-oxidopyridin-2-yl}-3-phenylpropanoyl]amino} benzoic acid], the 50% inhibitory concentration (IC50) was determined as 364 nM.

With `Cc1c(-c2c(F)ccc(Cl)c2F)ccc(C(Cc2ccccc2)C(=O)Nc2ccc(C(=O)O)cc2)[n+]1[O-]` (stereo not shown) [Example 26, 6-(1-((4-carboxyphenyl)amino)-1-oxo-3-phenylpropan-2-yl)-3-(3-chloro-2,6-difluorophenyl)-2-methylpyridine 1-oxide], the IC50 stood at 693 nM.

Source of the values: patent US9783530B2, “Factor Xla inhibitors” (Merck Sharp & Dohme Corp., priority 2014, dated 2017).
